Test results taken from ChEMBL document CHEMBL1201862, “PubChem BioAssay data set” (2004).
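Where inhibition never reached the appropriate level, the endpoint shown equals the highest concentration tested. Otherwise, values were interpolated linearly from a five-concentration, 48-hour dose response in 96-well plates. Here, GI50 denotes the concentration required for 50% inhibition of growth.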 Calls of active or inactive are those of the source. No stated cut-off is given here; in the data, active = GI50 up to about 1.1 µM and inactive = higher. Where a SMILES comes first, the peptide text is derived from it. [ ]: non-standard residue; d: D form. The star is where a group is joined. ξ: configuration not given here. ξD = NC(CC(=O)O)C(=O)O; Boc = CC(C)(C)OC(=O)*; Aib = CC(C)(N)C(=O)O; OBn = c1ccc(CO*)cc1

Assays:
Assay in all cases: NCI-60 cell line screen, 48 h
[1] = system: 786-0
[2] = system: A549
[3] = system: EKVX
[4] = system: HCT-116
[5] = system: HOP-92
[6] = system: Hs-578T
[7] = system: M14
[8] = system: MDA-MB-231
[9] = system: MDA-MB-435
[10] = system: NCI-H522
[11] = system: NCI/ADR-RES
[12] = system: OVCAR-3
[13] = system: SF-539
[14] = system: SK-MEL-28
[15] = system: SK-OV-3
[16] = system: SN12C
[17] = system: SNB-19
[18] = system: SNB-75
[19] = system: SW-620
[20] = system: T47D

Row | SMILES | GI50 [1] | GI50 [2] | GI50 [3] | GI50 [4] | GI50 [5] | GI50 [6] | GI50 [7] | GI50 [8] | GI50 [9] | GI50 [10] | GI50 [11] | GI50 [12] | GI50 [13] | GI50 [14] | GI50 [15] | GI50 [16] | GI50 [17] | GI50 [18] | GI50 [19] | GI50 [20]
1 | CC(C)c1ccc(/C(C(=O)O)=C(\O)C(=O)O)cc1 | > 100 µM (inactive) | > 100 µM (inactive) | > 100 µM (inactive) | > 100 µM (inactive) | > 100 µM (inactive) | > 100 µM (inactive) | > 100 µM (inactive) | > 100 µM (inactive) | > 100 µM (inactive) | > 100 µM (inactive) | > 100 µM (inactive) | > 100 µM (inactive) | > 100 µM (inactive) | > 100 µM (inactive) | > 100 µM (inactive) | > 100 µM (inactive) | > 100 µM (inactive) | > 100 µM (inactive) | > 100 µM (inactive) | > 100 µM (inactive)
2 | CC(C)(C)OC(=O)NC(CC(=O)OCc1ccccc1)C(=O)NC(C)(C)C(N)=O (stereo not given) (Boc-[ξD](OBn)-[Aib]-NH2) | > 100 µM (inactive) | > 100 µM (inactive) | > 100 µM (inactive) | > 100 µM (inactive) | > 100 µM (inactive) | > 100 µM (inactive) | > 100 µM (inactive) | > 100 µM (inactive) | > 100 µM (inactive) | > 100 µM (inactive) | > 100 µM (inactive) | > 100 µM (inactive) | > 100 µM (inactive) | > 100 µM (inactive) | > 100 µM (inactive) | > 100 µM (inactive) | > 100 µM (inactive) | > 100 µM (inactive) | > 100 µM (inactive) | > 100 µM (inactive)
3 | N=C(N)NCCCC(=O)O | > 100 µM (inactive) | > 100 µM (inactive) | > 100 µM (inactive) | > 100 µM (inactive) | > 100 µM (inactive) | > 100 µM (inactive) | > 100 µM (inactive) | > 100 µM (inactive) | > 100 µM (inactive) | > 100 µM (inactive) | > 100 µM (inactive) | > 100 µM (inactive) | > 100 µM (inactive) | > 100 µM (inactive) | > 100 µM (inactive) | > 100 µM (inactive) | > 100 µM (inactive) | > 100 µM (inactive) | > 100 µM (inactive) | > 100 µM (inactive)
4 | CC1(C)CCCCCC(O)C(O)CCC(C)(C)C1=O (stereo not given) | > 100 µM (inactive) | > 100 µM (inactive) | > 100 µM (inactive) | > 100 µM (inactive) | > 100 µM (inactive) | > 100 µM (inactive) | > 100 µM (inactive) | > 100 µM (inactive) | > 100 µM (inactive) | 83.9 µM (inactive) | > 100 µM (inactive) | > 100 µM (inactive) | > 100 µM (inactive) | > 100 µM (inactive) | > 100 µM (inactive) | > 100 µM (inactive) | > 100 µM (inactive) | > 100 µM (inactive) | > 100 µM (inactive) | > 100 µM (inactive)
5 | COc1c(C(=O)/C(=N/Nc2ccc(C(=O)O)cc2)C(C)=O)c(O)cc2occc12 | > 100 µM (inactive) | > 100 µM (inactive) | > 100 µM (inactive) | > 100 µM (inactive) | 43.4 µM (inactive) | > 100 µM (inactive) | > 100 µM (inactive) | > 100 µM (inactive) | 46.7 µM (inactive) | 51.3 µM (inactive) | > 100 µM (inactive) | > 100 µM (inactive) | > 100 µM (inactive) | > 100 µM (inactive) | > 100 µM (inactive) | > 100 µM (inactive) | > 100 µM (inactive) | 50.7 µM (inactive) | > 100 µM (inactive) | > 100 µM (inactive)
6 | COc1cc2c(c(OC)c1OC)-c1ccc(SC)c(=O)cc1C(NC(=O)c1ccccc1)CC2 (stereo not given) | < 0.01 µM (active) | < 0.01 µM (active) | 21.2 µM (inactive) | < 0.01 µM (active) | 0.0119 µM (active) | < 0.01 µM (active) | < 0.01 µM (active) | < 0.01 µM (active) | < 0.01 µM (active) | < 0.01 µM (active) | 0.0103 µM (active) | < 0.01 µM (active) | 0.0118 µM (active) | 0.305 µM (active) | 0.027 µM (active) | < 0.01 µM (active) | < 0.01 µM (active) | 0.167 µM (active) | < 0.01 µM (active) | 86.3 µM (inactive)
